Test systems include 786-0 renal; NCI-H522 lung; HCT-15 colon; SF-539 CNS; M14 melanoma; UO-31 renal; MALME-3M melanoma; OVCAR-5 ovarian; HCC-2998 colon; HOP-92 NSCLC.
Experiment in all cases: DTP human tumour cell line panel, 48 h

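48-hour exposure; five concentrations; linearly interpolated endpoints. Abbreviation: GI50, concentration required for 50% inhibition of growth. TGI marks complete inhibition of growth.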

By GI50 is commonly meant the concentration at which growth is held to half of that of the control. For orientation: TGI means the concentration giving total growth inhibition. A lower TGI goes with more potent growth arrest.

`C=CC[C@@H]1/C=C(\C)C[C@H](C)C[C@H](OC)[C@H]2O[C@@](O)(C(=O)C(=O)N3CCCC[C@H]3C(=O)O[C@H](/C(C)=C/C3CC[C@@H](O)[C@H](OC)C3)[C@H](C)[C@@H](O)CC1=O)[C@H](C)C[C@@H]2OC` (stereo not given in full): the GI50 is 17.3 µM with 786-0 renal; 12.7 µM in the assay with NCI-H522 lung; 17.2 µM in the assay with HCT-15 colon; 17.5 µM in the assay on SF-539 CNS; 14.9 µM with M14 melanoma; 12.8 µM in the assay with UO-31 renal. For the same compound, the GI50 was 14.6 µM in the assay on MALME-3M melanoma, 17.2 µM in the assay on OVCAR-5 ovarian and 18.8 µM with HCC-2998 colon. In addition, the TGI was found to be 35.1 µM in the assay with 786-0 renal; 27 µM with NCI-H522 lung; 38.1 µM in the assay with HCT-15 colon; 34 µM in the assay with SF-539 CNS; 28.6 µM in the assay with M14 melanoma; 26.4 µM with UO-31 renal. Moreover, the concentration for total growth inhibition (TGI) is 32.1 µM with MALME-3M melanoma, 37.2 µM with OVCAR-5 ovarian and 34.7 µM with HCC-2998 colon.

Consider `NC(=O)Nc1c([N+](=O)[O-])cc(C(F)(F)F)cc1[N+](=O)[O-]`, for which the TGI in the assay on 786-0 renal, in the assay on HOP-92 NSCLC, with NCI-H522 lung, in the assay on HCT-15 colon, in the assay with SF-539 CNS and in the assay with M14 melanoma was over 100 µM each time. In addition, the TGI in the assay with UO-31 renal and in the assay on OVCAR-5 ovarian was over 100 µM throughout.

For the compound `N#Cc1cc(N(CCCl)CCCl)c([N+](=O)[O-])cc1[N+](=O)[O-]`, the TGI with 786-0 renal, in the assay with HOP-92 NSCLC, with NCI-H522 lung, with HCT-15 colon, in the assay with SF-539 CNS and with M14 melanoma was over 100 µM in each case. For the same compound, the TGI with UO-31 renal, with MALME-3M melanoma and in the assay on OVCAR-5 ovarian was over 100 µM in each case.

For `O=C(O)c1cccc2cccc(C(=O)O)c12.[Hg]`, the GI50 in the assay with 786-0 renal is 15.4 µM; with NCI-H522 lung, 0.687 µM; with HCT-15 colon, 14.4 µM; with M14 melanoma it was 14 µM; in the assay on UO-31 renal, 20.7 µM; in the assay on MALME-3M melanoma it was 4.04 µM. Also, the GI50 in the assay on OVCAR-5 ovarian is 19.4 µM; in the assay with HCC-2998 colon, 12 µM. Also, the TGI in the assay on 786-0 renal amounted to 29.1 µM; in the assay with NCI-H522 lung, 2.42 µM; in the assay on HCT-15 colon, 29.8 µM; with M14 melanoma it was 27 µM; in the assay with UO-31 renal it was 35 µM; with MALME-3M melanoma it was 15 µM. Moreover, the TGI turned out to be 33.5 µM in the assay with OVCAR-5 ovarian and 25.3 µM in the assay on HCC-2998 colon.

As to `COC(=O)C(Cc1ccccc1)NC(=O)Cn1ccnc1[N+](=O)[O-]` (stereo not given), the TGI in the assay with 786-0 renal, in the assay with HOP-92 NSCLC, in the assay with NCI-H522 lung, in the assay with HCT-15 colon, in the assay with SF-539 CNS and in the assay with M14 melanoma was over 100 µM in each case. Moreover, the TGI in the assay with UO-31 renal, in the assay on MALME-3M melanoma and in the assay on OVCAR-5 ovarian was over 100 µM each time.

For `CCCCCNC(=O)c1c(O)[nH]c(=S)[nH]c1=O`, the TGI in the assay with 786-0 renal, in the assay with HOP-92 NSCLC, with NCI-H522 lung, in the assay on HCT-15 colon, with SF-539 CNS and with M14 melanoma was over 100 µM in each case. For the same compound, the TGI in the assay on MALME-3M melanoma and in the assay with OVCAR-5 ovarian was over 100 µM in each case.

Regarding `O=C(NCCNc1nccc(-c2c(-c3ccc(F)cc3)nc3sccn23)n1)c1ccccc1`, the GI50 in the assay on 786-0 renal was 15.3 µM; in the assay with HOP-92 NSCLC, 14.8 µM; in the assay on NCI-H522 lung, 11.1 µM; with HCT-15 colon, 3.81 µM; in the assay on SF-539 CNS, 12.2 µM; in the assay on M14 melanoma, 7.97 µM. Also, the GI50 in the assay on UO-31 renal was 1.75 µM; in the assay on OVCAR-5 ovarian it was 18.1 µM; in the assay with HCC-2998 colon it was 17.4 µM. Further, the TGI with 786-0 renal was over 100 µM; with HOP-92 NSCLC, 68.2 µM; in the assay with NCI-H522 lung, 27.4 µM; in the assay on HCT-15 colon, 39.3 µM; in the assay with SF-539 CNS it was 29.5 µM; in the assay with M14 melanoma it was 22.3 µM. Also, the TGI with UO-31 renal turned out to be 18.5 µM; in the assay with OVCAR-5 ovarian it was 99.3 µM; in the assay on HCC-2998 colon, 40.1 µM.

On to `COc1ccc(-c2nc(N3CCOCC3)c3sc(CN(C)c4ncc(C(=O)NO)cn4)cc3n2)cn1`, for which the GI50 with 786-0 renal is 0.0313 µM; with HOP-92 NSCLC, 0.0147 µM; in the assay with SF-539 CNS, 0.0101 µM; in the assay with UO-31 renal, under 0.01 µM; in the assay on MALME-3M melanoma, under 0.01 µM; with OVCAR-5 ovarian, under 0.01 µM. For the same compound, the TGI in the assay on 786-0 renal amounted to 0.171 µM; in the assay on HOP-92 NSCLC, 0.0508 µM; in the assay on SF-539 CNS it was 0.161 µM; in the assay on UO-31 renal it was 0.0705 µM; in the assay on MALME-3M melanoma, 0.0352 µM; in the assay with OVCAR-5 ovarian it was 0.0419 µM.

As to `Nc1ccc(-c2nc3ccccc3o2)cc1S`, the GI50 with 786-0 renal was 14.5 µM; in the assay on HOP-92 NSCLC it was 18.8 µM; with NCI-H522 lung, 35.5 µM; in the assay with HCT-15 colon it was 16.5 µM; with SF-539 CNS, 17.6 µM; in the assay with M14 melanoma, 15.5 µM. The GI50 in the assay on UO-31 renal is 19.5 µM; in the assay with OVCAR-5 ovarian, 19.2 µM; in the assay with HCC-2998 colon, 14.4 µM. Moreover, the total growth inhibition concentration (TGI) with 786-0 renal was 27.6 µM; with HOP-92 NSCLC, 42.3 µM; in the assay on NCI-H522 lung, over 100 µM; in the assay with HCT-15 colon it was 30.3 µM; in the assay on SF-539 CNS, 31.4 µM; in the assay with M14 melanoma, 36.7 µM. In addition, the TGI with UO-31 renal turned out to be 50.6 µM; with OVCAR-5 ovarian, 45.3 µM; in the assay with HCC-2998 colon, 32.2 µM.

Regarding `O=C(O)c1ccccc1-c1ccccc1C(=O)Nc1ccc2c(c1)[nH]c(=O)c1ccccc12`, the concentration for total growth inhibition (TGI) with 786-0 renal, in the assay with HOP-92 NSCLC, in the assay on NCI-H522 lung, in the assay on HCT-15 colon, in the assay on SF-539 CNS and in the assay with M14 melanoma was over 100 µM in each case. Further, the TGI in the assay on UO-31 renal, in the assay on MALME-3M melanoma and with OVCAR-5 ovarian was over 100 µM throughout.

(Values after PubChem BioAssay (NCI).)
